We go through eleven molecules from patent US20210062146A1, “OPTIMIZED IN VITRO CELLULAR SYSTEM FOR BBB PERMEABILITY LINKED NEUROACTIVITY SCREENING” (priority 2019, published 2021).

The nature of series [1]: in vitro. The settings on record: human.
A short description of series [2]: in vitro. The settings on record: human. The source holds these as a separate data set.
A short description of series [3]: in vitro. The conditions noted are these: human. The source holds these as a separate data set.
Series [4] deals with direct contact triculture. The series is described as follows: Triculture cell viability assay (MTT). The series is classed as cell-based, human. The settings on record: following 3 hours of permeation; no significant change vs control (p>0.05).
The subject of series [5] is NVU model (direct contact triculture with SH-SY5Y neurons). The settings on record: for flux: human, 3 h, 50 μM.
Another series relates to SH-SY5Y neurons. The series is described as follows: BBB permeability linked neuroactivity (Neurite Outgrowth Staining Kit). The conditions noted are these: 50 μM initial apical concentration, 3 hour permeation, n=4.
The conditions of series [6]: human.
Series [7] has as its system direct contact triculture (astrocytes, pericytes, HBEC-5i). The conditions noted are these: optimized triculture; radiolabeled marker, 0.25 μCi/mL in HBSS.
Series [8] concerns NVU model (direct contact triculture with SH-SY5Y neurons). In words: Permeability across optimized NVU model (triculture with SH-SY5Y neurons in basolateral chamber).

Where two headings read alike, the source gives them in different places.

In turn, `OC[C@@H](O)[C@@H](O)[C@H](O)[C@H](O)CO` [mannitol] had a Papp A→B at 90 min, 0.25 μCi/mL in the series “in vitro [1]” of 19.9 ×10⁻⁶ cm/s.
Consider `COc1ccc2[nH]cc(CCNC(C)=O)c2c1` [melatonin], for which the Papp A→B at 180 min in the series “in vitro [2]” was found to be 18.3 ×10⁻⁶ cm/s.
With `Cn1c(=O)c2c(ncn2C)n(C)c1=O` [caffeine], in the series “in vitro [3]”, the viability at 3 h, 50 μM is 159 ± 34%. Further, in the series “in vitro [1]”, the apparent permeability from apical to basolateral (Papp A→B) at 150 min, 25 μM amounted to 28.9 ×10⁻⁶ cm/s. In addition, the “viability of the triculture (MTT), percent of the control” value (“viability … percent of the control” below) in series [4] was 104±25%. Besides, the flux in series [5] is 269±14 pg/cm^2·sec. In addition, the “neurite outgrowth, percent of control NVU SH-SY5Y cells with vehicle” value with SH-SY5Y neurons is recorded as 122±26%. Besides, the Papp A→B at 180 min in “in vitro [2]” worked out at 30.7 ×10⁻⁶ cm/s.
`COc1cc2nc(N3CCN(C(=O)c4ccco4)CC3)nc(N)c2cc1OC` [prazosin]: the apical-to-basolateral permeability (Papp A→B) at 150 min, 25 μM in the series “in vitro [1]” was found to be 6.16 ×10⁻⁶ cm/s. The “viability … percent of the control” value in series [4] amounted to 82±6%. Moreover, in [5], the “change in permeation rate across the NVU model in comparison to the optimized triculture alone” value is “significant decreases” and the flux is 166±14 pg/cm^2·sec. The molecule also gave a Papp A→B at 180 min in the series “in vitro [2]” of 3.9 ×10⁻⁶ cm/s.
As to `COc1cc2c(c(OC)c1OC)-c1ccc(OC)c(=O)cc1[C@@H](NC(C)=O)CC2` [colchicine], in [6], the Papp A→B at 150 min, 25 μM was found to be 18.7 ×10⁻⁶ cm/s.
For the molecule `CN1CCN(C2=Nc3cc(Cl)ccc3Nc3ccccc32)CC1` [clozapine], the viability at 3 h, 50 μM in “in vitro [3]” turned out to be 143 ± 20%. The molecule further gave a Papp A→B at 150 min, 25 μM in the series “in vitro [1]” of 8.15 ×10⁻⁶ cm/s. The “viability … percent of the control” value in series [4] turned out to be 99±4%. Moreover, in [5], the “change in permeation rate across the NVU model in comparison to the optimized triculture alone” value is “significant increase” and the flux stood at 372±19 pg/cm^2·sec. Besides, the “neurite outgrowth, percent of control NVU SH-SY5Y cells with vehicle” value with SH-SY5Y neurons was found to be 111±12%. Besides, in the series “in vitro [2]”, the apparent permeability from apical to basolateral (Papp A→B) at 180 min was 11.4 ×10⁻⁶ cm/s.
As for inulin, in series [7], the Papp is given as 1.55×10^−5±0.01 cm/sec.
Regarding `N[C@@H](Cc1c[nH]cn1)C(=O)O` [L-histidine], the Papp A→B at 90 min, 0.25 μCi/mL in “in vitro [1]” is 52.6 ×10⁻⁶ cm/s.
With `NC(=O)N1c2ccccc2C=Cc2ccccc21` [carbamazepine], the viability at 3 h, 50 μM in “in vitro [3]” is 96 ± 18%. Further, the Papp A→B at 150 min, 25 μM in the series “in vitro [1]” is 27.7 ×10⁻⁶ cm/s. Moreover, the “viability … percent of the control” value in series [4] turned out to be 103±5%. In series [5], this molecule yielded a Papp of 25.37±2.80×0^−6 cm/sec and a flux of 310±9 pg/cm^2·sec.
With `CS(=O)(=O)CCNCc1ccc(-c2ccc3ncnc(Nc4ccc(OCc5cccc(F)c5)c(Cl)c4)c3c2)o1` [Lapatinib], the “detection in the receiver chamber after 3 hours” value in series [8] is “undetectable”.
Turning to PEG-4000, in series [7], the Papp is 0.78×10^−5±0.00 cm/sec.
